According to patent US11702419B2, “Heterocyclic compound and use thereof” (Takeda Pharmaceutical Company Limited, priority 2018, dated 2023):

What was measured:
[1] = in vivo; cited from earlier work
[2] = test system: NMDA receptor containing the NR2B subunit (hippocampus); assay: [3H]MK-801 binding test in vivo; parameters: species or system Sprague Dawley rats; details: [3H]MK-801 binding inhibitory rate, rat hippocampus
Method: [^3H]MK-801 Binding Test In Vivo
In order to confirm “functional antagonistic action on an NMDA receptor containing the NR2B subunit in vivo” which the compound of the present invention has, binding test was performed using tritium-labeled form of MK-801 ((5R,10S)-5-methyl-10,11-dihydro-5H-5,10-epiminodibenzo[a,d][7]annulene) ([^3H]MK-801), which is a compound capable of binding to the opening site of the NMDA receptor.
The example compound (3 mg/kg/2 mL, 0.5% MC water) or vehicle ([…], 0.5% MC water) was orally administered (p.o.) to Sprague Dawley rats (body weight 180-260 g). After a certain time (around after time-to maximum blood concentration), [^3H]MK-801 (20 μCi/kg/mL, Muromachi Kikai) was intravenously administered. After 10 min, the rats were euthanized by decapitation, and subjected to craniotomy, and the hippocampus was collected. The collected hippocampus was homogenized in 30 volumes (30 mL per 1 g tissue) ice-cooled 20 mM Hepes (pH7.5, Hampton Research) using a homogenizer (T10 basic Ultra-Turrax) for 10 sec. […] The filter was washed four times with ice-cooled saline (5 mL, Otsuka Pharmaceutical), put into a scintillation vial, and then 10 mL of liquid scintillator A (FUJIFILM Wako Pure Chemical Corporation) was added thereto, and the residual radioactivity was counted using liquid scintillation counter (ALOKA LSC-6100). Separately, the residual radioactivity in 100 μL of the homogenate before the filtration was counted in the same way. The value of [the residual radioactivity in the filter/the residual radioactivity in the 100 μL of the homogenate] was calculated as a [^3H]MK-801 binding rate to the NMDA receptor expressing in each individual hippocampus tissue. […] The difference between the percentage of [^3H]MK-801 binding rate in the group orally administered with the example compound and that in the vehicle control group (100%) was analyzed as [^3H]MK-801 binding inhibitory rate by the example compound.

[3] = molecular target: T1, hERG channel (Homo sapiens, UniProt Q12809); assay: hERG manual patch-clamp assay; format: cell-based; details: 10 μmol/L test solution; hERG peak tail current 3 to 5 min after application, HEK293 cells
T1 construct: Medicine
Method: hERG Manual Patch-Clamp Assay
In order to confirm “hERG channel inhibitory activity” which the compound of the present invention has, the hERG channel inhibitory activity was evaluated using human Ether-a-go-go-Related Gene (hERG)-expressing human embryonic kidney 293 (HEK293) cells.
hERG-stably expressing HEK293 cells were purchased from University of Wisconsin-Madison Dept. Medicine. The cells were cultured in a medium prepared by adding 10% FBS (fetal bovine serum, Life Technologies Corporation), sodium pyruvate (1 mmol/L; Life Technologies Corporation), MEM Non-Essential Amino Acid (1×; Life Technologies Corporation), 100 units/mL penicillin, 100 μg/mL streptomycin (Life Technologies Corporation) and 400 μg/mL G 418 (Geneticin, Sigma-Aldrich Co. LLC.) to Minimum Essential Medium (Sigma-Aldrich Co. LLC.) at 37° C., 5% CO2. The cultured cells were detached, suspended in a medium, and seeded on a cover glass, cultured, and used in a patch-clamp assay. […]
The hERG current passing through whole cell membranes under voltage-clamp was recorded by whole-cell patch-clamp method. […] During measurement, the extracellular fluid temperature in the chamber was set at 20 to 25° C., and the hERG current was measured using patch-clamp amplifier (Axopatch-200B, Molecular Devices, LLC). The obtained electrical signal was recorded on a computer via patch-clamp record and analysis software (pCLAMP 10, Molecular Devices, LLC). The absolute value of the hERG current value (peak tail current) was calculated based on the current value when depolarizing pulse at −50 mV, 110 msec was given, and the change (inhibitory rate) in the hERG current value (peak tail current) 3 to 5 min after the application of the 10 μmol/L test solution relative to before the application was calculated.

[4] = molecular target: T2, NMDA receptor composed of four subunits consisting of two sets of heterodimers of NR1 and NR2B (human GRIN1 and GRIN2B-expressing HEK293 cells) (Homo sapiens, UniProt Q13224); assay: NR2B Ca2+ influx assay; format: cell-based; details: 10 μM compound, glutamic acid/glycine-induced Ca2+ influx, FLIPR, read-out: inhibitory rate (10 μM compound concentration)
T2 construct: host or cells: HEK293 (tetracycline-inducible expression)
Outline: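 HEK293 cells expressing human GRIN1/GRIN2B were induced with tetracycline (diluted to 2 µg/mL) for 2 h, then Fluo-4AM loaded (2.5 µM) in pH 7.2 buffer with 1.8 mM CaCl2. Compound at 10 µM final was preincubated 15 min at room temperature, then challenged with buffer containing 30 µM glutamate/30 µM glycine. FLIPR fluorescence was read every 3 s for 5 min, with % inhibition from cumulative signal and agonist-free wells set as 100%.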

[5] = rodents; number of occurrence and depth; cited from earlier work
[6] = continuous intravenous administration; cited from earlier work
[7] = single intravenous administration; major depression and bipolar disorder; cited from earlier work
[8] = in vivo; cited from earlier work; remark: listed apart in the source

T2 sequence (Q13224 27-1484, other chains not shown): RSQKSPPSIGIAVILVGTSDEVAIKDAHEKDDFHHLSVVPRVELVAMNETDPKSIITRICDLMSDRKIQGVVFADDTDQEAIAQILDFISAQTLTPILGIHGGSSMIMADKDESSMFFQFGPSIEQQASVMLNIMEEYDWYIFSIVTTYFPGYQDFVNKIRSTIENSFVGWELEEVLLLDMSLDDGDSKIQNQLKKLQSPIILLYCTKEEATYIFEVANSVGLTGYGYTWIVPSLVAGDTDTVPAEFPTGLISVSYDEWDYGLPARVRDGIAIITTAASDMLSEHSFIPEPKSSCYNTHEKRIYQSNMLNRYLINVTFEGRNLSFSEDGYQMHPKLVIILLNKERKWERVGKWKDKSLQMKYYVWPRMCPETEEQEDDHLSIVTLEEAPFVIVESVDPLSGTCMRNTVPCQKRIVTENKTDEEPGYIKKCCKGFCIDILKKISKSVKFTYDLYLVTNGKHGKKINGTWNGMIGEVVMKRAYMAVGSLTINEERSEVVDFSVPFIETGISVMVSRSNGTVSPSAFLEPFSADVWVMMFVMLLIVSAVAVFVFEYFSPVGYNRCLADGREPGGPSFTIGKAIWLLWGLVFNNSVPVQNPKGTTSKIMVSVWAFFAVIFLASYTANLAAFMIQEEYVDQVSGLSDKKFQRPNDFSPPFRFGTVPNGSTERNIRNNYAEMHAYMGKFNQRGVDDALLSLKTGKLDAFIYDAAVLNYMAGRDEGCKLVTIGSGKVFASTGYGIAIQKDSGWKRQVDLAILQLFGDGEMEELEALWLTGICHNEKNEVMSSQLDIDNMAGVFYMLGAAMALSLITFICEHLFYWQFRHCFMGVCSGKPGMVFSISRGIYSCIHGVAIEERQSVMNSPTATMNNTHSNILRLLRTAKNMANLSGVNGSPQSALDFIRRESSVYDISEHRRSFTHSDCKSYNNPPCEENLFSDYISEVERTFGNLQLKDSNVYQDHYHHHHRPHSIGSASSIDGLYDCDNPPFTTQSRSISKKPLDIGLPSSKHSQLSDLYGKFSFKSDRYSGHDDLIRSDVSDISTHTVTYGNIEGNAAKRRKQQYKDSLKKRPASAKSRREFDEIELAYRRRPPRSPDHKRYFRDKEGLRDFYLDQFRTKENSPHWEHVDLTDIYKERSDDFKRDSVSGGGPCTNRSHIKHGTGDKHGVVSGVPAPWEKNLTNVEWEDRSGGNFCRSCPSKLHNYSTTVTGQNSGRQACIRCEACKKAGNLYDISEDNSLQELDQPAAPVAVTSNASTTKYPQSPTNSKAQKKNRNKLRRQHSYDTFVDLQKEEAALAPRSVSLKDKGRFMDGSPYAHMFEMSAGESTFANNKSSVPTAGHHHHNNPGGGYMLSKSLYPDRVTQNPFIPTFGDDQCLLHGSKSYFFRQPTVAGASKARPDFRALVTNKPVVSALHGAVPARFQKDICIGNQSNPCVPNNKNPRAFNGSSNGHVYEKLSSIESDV
T1 sequence (Q12809 whole entry): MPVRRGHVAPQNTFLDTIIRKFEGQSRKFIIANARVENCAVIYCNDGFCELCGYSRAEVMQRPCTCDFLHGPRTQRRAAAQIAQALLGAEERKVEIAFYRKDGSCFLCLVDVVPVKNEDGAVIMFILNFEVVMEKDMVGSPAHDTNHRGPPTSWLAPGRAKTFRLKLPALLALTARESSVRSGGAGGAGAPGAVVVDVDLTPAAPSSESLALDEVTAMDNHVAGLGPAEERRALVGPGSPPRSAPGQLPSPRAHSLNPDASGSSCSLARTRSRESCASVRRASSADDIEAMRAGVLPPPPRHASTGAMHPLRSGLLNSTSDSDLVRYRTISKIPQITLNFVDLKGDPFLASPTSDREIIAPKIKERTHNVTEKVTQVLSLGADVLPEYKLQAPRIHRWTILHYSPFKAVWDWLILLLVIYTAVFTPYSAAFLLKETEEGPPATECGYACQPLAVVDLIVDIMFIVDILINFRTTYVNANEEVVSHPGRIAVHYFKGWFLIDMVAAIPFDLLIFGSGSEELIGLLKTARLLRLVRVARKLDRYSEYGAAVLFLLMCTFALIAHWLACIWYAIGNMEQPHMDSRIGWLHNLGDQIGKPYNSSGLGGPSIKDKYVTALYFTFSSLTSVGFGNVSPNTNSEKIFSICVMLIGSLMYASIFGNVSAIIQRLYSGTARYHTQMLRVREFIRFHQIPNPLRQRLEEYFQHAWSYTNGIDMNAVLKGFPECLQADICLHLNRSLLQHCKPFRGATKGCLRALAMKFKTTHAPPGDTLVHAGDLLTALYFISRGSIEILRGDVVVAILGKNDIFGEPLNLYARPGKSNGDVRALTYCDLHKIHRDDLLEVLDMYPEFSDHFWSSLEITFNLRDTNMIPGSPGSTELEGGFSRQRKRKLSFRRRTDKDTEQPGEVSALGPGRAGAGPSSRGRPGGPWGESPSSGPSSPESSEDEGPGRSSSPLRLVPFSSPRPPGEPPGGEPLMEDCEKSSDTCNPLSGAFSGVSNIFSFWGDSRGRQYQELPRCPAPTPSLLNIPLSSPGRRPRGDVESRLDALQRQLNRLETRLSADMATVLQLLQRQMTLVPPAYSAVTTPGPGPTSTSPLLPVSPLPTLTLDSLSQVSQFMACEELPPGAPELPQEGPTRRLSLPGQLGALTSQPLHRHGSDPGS

Structure (SMILES) | inhibitory rate (3 mg/kg, p.o.) [2] [%] | inhibitory rate (10 μM compound concentration) [3] | inhibition at 10 µM [4] [%] | further results
CC(C(O)c1ccc(O)cc1)N1CCC(Cc2ccccc2)CC1 (stereo not drawn) [ifenprodil] |  |  |  | effect on pain threshold [1]: increase in pain threshold
Cn1ccn2ncc(CNC(=O)c3cnc(OC(F)F)c(F)c3)c12 [Example 58, 6-(difluoromethoxy)-5-fluoro-N-((1-methyl-1H-imidazo[1,2-b]pyrazol-7-yl)methyl)nicotinamide] | 27 | 13.6 | 97 | 
C[C@@H]([C@@H](O)c1ccc(O)cc1)N1CCC(O)(c2ccccc2)CC1 [CP-101,606] |  |  |  | effect on cortical spreading depression [5]: suppress the number of occurrence and the depth of cortical spreading depression; effect on treatment resistant-depression symptom [6]: significantly improves treatment resistant-depression symptom
O=C(NCc1nnn2ccccc12)c1ccc(OC(F)(F)F)c(F)c1 [Example 13, 3-fluoro-N-([1,2,3]triazolo[1,5-a]pyridin-3-ylmethyl)-4-(trifluoromethoxy)benzamide] | 23 | 33.2 | 96 | 
O=C(NCc1cnn2ncccc12)c1cnc(OC(F)F)c(F)c1 [Example 6, 6-(difluoromethoxy)-5-fluoro-N-(pyrazolo[1,5-b]pyridazin-3-ylmethyl)nicotinamide] | 33 | 16.5 | 97 | 
CNC1(c2ccccc2Cl)CCCCC1=O (stereo not drawn) [ketamine] |  |  |  | effect on depression symptom [7]: improves depression symptom accompanying major depression and bipolar disorder rapidly and in a sustained manner
C[C@@H](CN1CCC(Cc2ccccc2)CC1)[C@@H](O)c1ccc(O)cc1 [Ro25-6981] |  |  |  | effect on cortical spreading depression [5]: suppress the number of occurrence and the depth of cortical spreading depression
CC12CC3CC(C)(C1)CC(N)(C3)C2 [memantine] |  |  |  | effect on behavioral and psychological symptoms of dementia [8]: partially improves behavioral and psychological symptoms of dementia
